In ChEMBL document CHEMBL5241108 (J Med Chem, 2021):
Values after ≈ are worked out from the molar mass of the structure shown.

Assays:
[1] = Lipophilicity, logD of compound at pH 7.5 by reversed-phase HPLC analysis; type: physicochemical; details: buffer
[2] = Metabolic stability in Han Wistar rat liver microsomes assessed as maximum bioavailability at 1 uM in presence of NADP and measured upto 60 mins by LC-MS/MS analysis; type: ADME, Microsome; details: read-out: Fmax
[3] = Metabolic stability in Han Wistar rat liver microsomes assessed as intrinsic clearance at 1 uM in presence of NADP and measured upto 60 mins by LC-MS/MS analysis; type: ADME, Microsome; details: read-out: CLH (converted)
[4] = Stability of compound at pH 1 at 5 uM and measured upto 24 hrs by HPLC-UV analysis; type: physicochemical; details: buffer, pH 1, 24 h
[5] = Aqueous solubility of compound at pH 6.5 and measured after 24 hrs by HPLC-MS/MS analysis; type: physicochemical; details: buffer
[6] = Metabolic stability in human liver microsomes assessed as maximum bioavailability at 1 uM in presence of NADP and measured upto 60 mins by LC-MS/MS analysis; type: ADME, Microsome; details: read-out: Fmax
[7] = Metabolic stability in Han Wistar rat hepatocytes assessed as maximum bioavailability at 1 uM in presence of NADP and measured upto 90 mins by LC-MS/MS analysis; type: ADME, Hepatocyte; details: read-out: Fmax
[8] = Metabolic stability in Han Wistar rat hepatocytes assessed as intrinsic clearance at 1 uM in presence of NADP and measured upto 90 mins by LC-MS/MS analysis; type: ADME, cell-based, Hepatocyte; details: read-out: CLH (converted)
[9] = Stability of compound at pH 7 at 5 uM and measured upto 24 hrs by HPLC-UV analysis; type: physicochemical; details: buffer, pH 7, 24 h
[10] = Stability of compound at pH 10 at 5 uM and measured upto 24 hrs by HPLC-UV analysis; type: physicochemical; details: buffer, pH 10, 24 h
[11] = Acid dissociation constant, pKa of the compound; type: physicochemical

Compound | chromatographic logD [1] | other results
CC(C)(Nc1c(C#N)c(-c2ccc(Br)cc2)nc2cnccc12)C(N)=O | 2.1 | 
CC[C@@H](Nc1c(C#N)c(-c2ccc(-c3ccccc3N(C)C)cc2)nc2cnccc12)C(N)=O | 3.2 | 
CCOc1ccccc1-c1ccc(-c2nc3cnccc3c(N[C@H](CC(C)C)C(N)=O)c2C#N)cc1 | 3.4 | 
CC[C@@H](Nc1c(C#N)c(-c2ccc(-c3cccc(C)c3F)cc2)nc2cnccc12)C(=O)O [BAY-091] | 2.1 | Fh at 1 h, 1 µM [2]: 33%; CLint scaled at 1 µM [3]: 46.7 mL/min/kg; Stability [4]: Stable; solubility at 24 h [5]: > 1000 µg/mL; Fh at 1 h, 1 µM [6]: 100%; Fh at 1.5 h, 1 µM [7]: 44%; CLint scaled at 1 µM [8]: 38.3 mL/min/kg; Stability [9]: Stable; Stability [10]: Stable
CCOc1ccccc1-c1ccc(-c2nc3cnccc3c(N[C@H](CC)C(=O)NS(C)(=O)=O)c2C#N)cc1 | 2.2 | 
CCOc1ccccc1-c1ccc(-c2nc3cnccc3c(N[C@H](CC)C(=O)NCC(F)F)c2C#N)cc1 | 3.6 | 
CCOc1ccccc1-c1ccc(-c2nc3cnccc3c(NC(COC)C(N)=O)c2C#N)cc1 (racemic) | 2.8 | 
CC[C@@H](Nc1c(C#N)c(-c2ccc(-c3cccc(Cl)c3)cc2)nc2cnccc12)C(N)=O | 3.1 | 
CCOc1ccccc1-c1ccc(-c2nc3cnccc3c(NC(CC)CNS(=O)(=O)C3CC3)c2C#N)cc1 (racemic) | 3.6 | 
CCOc1ccccc1-c1ccc(-c2nc3cnccc3c(N[C@H](CC)C(=O)N(C)C)c2C#N)cc1 | 3.7 | 
CCCCC(Nc1c(C#N)c(-c2ccc(-c3ccccc3OCC)cc2)nc2cnccc12)C(N)=O (racemic) | 3.6 | 
CC[C@@H](Nc1c(C#N)c(-c2ccc(-c3ccccc3C)cc2)nc2cnccc12)C(N)=O | 3 | 
CC[C@@H](Nc1c(C#N)c(-c2ccc(-c3cccc(Cl)c3F)cc2)nc2cnccc12)C(=O)O | 2.2 | 
CC[C@@H](Nc1c(C#N)c(-c2ccc(-c3ccccc3C(F)(F)F)cc2)nc2cnccc12)C(N)=O | 3.1 | 
CC[C@@H](Nc1c(C#N)c(-c2ccc(-c3cnccc3C)cc2)nc2cnccc12)C(N)=O | 2 | 
CC[C@@H](Nc1c(C#N)c(-c2ccc(-c3ncccc3C)cc2)nc2cnccc12)C(N)=O | 2 | 
CC[C@@H](Nc1c(C#N)c(-c2ccc(-c3ccccc3NC)cc2)nc2cnccc12)C(N)=O | 2.5 | 
CCOc1ccccc1-c1ccc(-c2nc3cnccc3cc2C#N)cc1 | 3.8 | 
CC[C@@H](Nc1c(C#N)c(-c2ccc(-c3ccccc3C(C)C)cc2)nc2cnccc12)C(N)=O | 3.5 | 

Compound | chromatographic logD [1] | other results
CCOc1ccccc1-c1ccc(-c2nc3cnccc3c(N)c2C#N)cc1 | 3 | 
CC[C@@H](Nc1c(C#N)c(-c2ccc(-c3ccncc3C)cc2)nc2cnccc12)C(N)=O | 2 | 
CCOc1ccccc1-c1ccc(-c2nc3cnccc3c(N[C@H](CC)C(=O)NS(=O)(=O)C3CC3)c2C#N)cc1 | 2.3 | 
CCOc1ccccc1-c1ccc(-c2nc3cnccc3c(N[C@H](CC)C(=O)O)c2C#N)cc1 | 2.1 | Fh at 1 h, 1 µM [2]: 87%; CLint scaled at 1 µM [3]: 8.33 mL/min/kg; solubility at 24 h [5]: 112 µg/mL (≈ 248 µM); Fh at 1.5 h, 1 µM [7]: 87%; CLint scaled at 1 µM [8]: 8.33 mL/min/kg
CC[C@@H](Nc1c(C#N)c(-c2ccc(-c3cccnc3C)cc2)nc2cnccc12)C(N)=O | 1.9 | 
CCOc1ccccc1-c1ccc(-c2nc3cnccc3c(N[C@@H]3CCNC3=O)c2C#N)cc1 | 2.7 | 
CC[C@@H](Nc1c(C#N)c(-c2ccc(-c3ccccc3Cl)cc2)nc2cnccc12)C(N)=O | 2.9 | 
CCOc1ccccc1-c1ccc(-c2nc3cnccc3c(NC(C)C(=O)O)c2C#N)cc1 (racemic) | 2.1 | pKa [11]: 3.26
CC[C@@H](Nc1c(C#N)c(-c2ccc(-c3ccc(F)cc3)cc2)nc2cnccc12)C(N)=O | 2.7 | 
CCOc1ccccc1-c1ccc(-c2nc3cnccc3c(NC(C(N)=O)C3CC3)c2C#N)cc1 (racemic) | 3 | 
CC[C@@H](Nc1c(C#N)c(-c2ccc(Br)cc2)nc2cnccc12)C(=O)O | 1.6 | 
CCOc1ccccc1-c1ccc(-c2nc(NC(C)C(=O)O)c3ccncc3n2)cc1 (racemic) | 2.1 | 
CC[C@@H](Nc1c(C#N)c(-c2ccc(-c3cccc(C)c3)cc2)nc2cnccc12)C(N)=O | 3 | 
CCOc1ccccc1-c1ccc(-c2nc3cnccc3c(C[C@H](C)C(N)=O)c2C#N)cc1 | 3 | 
CC[C@@H](Nc1c(C#N)c(-c2ccc(-c3cccc(CO)c3)cc2)nc2cnccc12)C(N)=O | 2 | 
CC[C@@H](Nc1c(C#N)c(-c2ccc(-c3cccc(Cl)c3OC)cc2)nc2cnccc12)C(N)=O | 3.1 | 
CC(Nc1c(C#N)c(-c2ccc(Br)cc2)nc2cnccc12)C(N)=O (racemic) | 2.1 | 
CC[C@@H](Nc1c(C#N)c(-c2ccc(-c3ccccc3COC)cc2)nc2cnccc12)C(N)=O | 2.6 | 
CC[C@@H](Nc1c(C#N)c(-c2ccc(-c3ccccc3CO)cc2)nc2cnccc12)C(N)=O | 2.1 | 
